From patent US10214492B2, “Heterocyclic inhibitors of MCT4” (Vettore, LLC, priority 2016, dated 2019) come the findings set out here.

Molecules are shown by their SMILES.

Broadly, the IC50 is the concentration needed to halve the response being measured. High values mean lower potency, low ones higher potency.

Data set [1] is described as follows: Adjuvant-induced arthritis model in rat: Difference of Weight Bearing test (DWB). Format: in vivo. As to conditions: SD rat, CFA-induced arthritis; PO 3 days post CFA; compared to Dexamethasone.
Data set [2] can be described thus: Pharmacokinetic assay in rat (IV 3 mg/kg, PO 10 mg/kg). The data set is classed as in vivo. To be noted: Male Sprague-Dawley rat; for Rat F: oral bioavailability; for Rat F / half-life: PO 10 mg/kg; for half-life / Vd: plasma; for half-life: read-out: Rat t1/2 (converted); for Vd: volume of distribution, read-out: Rat Vss. The source says:
(§1) The following are assays that may be used to evaluate the pharmacokinetic properties of Formula (I) in mouse or rat. The assays follow a common procedure recited below.
(§2) 1. […] For PO (oral gavage), DMSO/PEG400 (10:90). Formulations freshly prepared on the day of dosing or prior to dosing. Storage at room temperature.
(§3) 2. Test Species: For Mouse: Male CD1 strain, approximately 6-8 weeks in age, approximately 20-30 g. For Rat: Male Sprague-Dawley strain, approximately 6-8 weeks in age, approximately 200-300 g.
(§4) 3. Dose Level: For IV, 3 mg/kg. For PO, 10 mg/kg.
(§5) 4. Number of animals: 3 per assay.
(§6) 5. PK time points: For IV (plasma): 5 min, 15 min, 1, 2, 4, 6, 8, 24 h post dose. For PO (plasma): 15 min, 30 min, 1, 2, 4, 6, 8, 24 h post dose.
(§7) 6. Blood Sample Collection and Processing. Blood was collected (˜0.2 mL per time point) from jugular vein. Blood of each sample was transferred into plastic micro centrifuge tubes containing anticoagulant of EDTA-K2. Blood samples were centrifuged at 2,000 g for 5 minutes at 4° C. to obtain plasma.
(§8) 7. Samples Analysis: Plasma samples were analyzed using LC/MS/MS method, and pharmacokinetic parameters (half-life: t1/2; oral bioavailability: F; volume of distribution: Vss).

Data set [3] can be described thus: Pharmacokinetic assay in mouse (IV 3 mg/kg, PO 10 mg/kg). Format: in vivo. To be noted: Male CD1 mouse; for Mouse F: oral bioavailability; for Mouse F / half-life: PO 10 mg/kg; for half-life / Vd: plasma; for half-life: read-out: Mouse t1/2 (converted); for Vd: volume of distribution, read-out: Mouse Vss.
Excerpt: as §1, §2, §3, §4, §5, §6, §7, §8

The nature of data set [4]: Metabolic stability in mouse liver microsomes (in vitro t1/2). The data set is classed as in vitro ADME. As to conditions: for half-life at 2 µM / Mouse microsome t1/2, min: mouse liver microsomes 0.5 mg/mL, 2 μM compound; for half-life at 2 µM: read-out: Mouse microsome t1/2, min; for Mouse microsome % 60 min: mouse liver microsomes. The procedure, abridged: (§9)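 Test compound (2 μM final) was added to NADPH-supplemented microsomes at 0.5 mg/mL protein and sampled over 60 min (0–60 min time points). In vitro t1/2 was calculated as −0.693/k, with k the slope of ln percent parent remaining, measured by LC-MS/MS, against time.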

Data set [5] is described as follows: Metabolic stability in human liver microsomes (in vitro t1/2). The data set is classed as in vitro ADME. As to conditions: for half-life at 2 µM: read-out: Human microsome t1/2, min; for Human microsome % 60 min: human liver microsomes. The procedure, abridged:
as §9
(Liver microsomes are a subcellular fraction often used to study metabolism.)

Data set [6] in a line: Adjuvant-induced arthritis model in rat: Mechanical Allodynia test (MA, Von Frey). Format: in vivo. To be noted: SD rat, CFA-induced arthritis; PO 3 days post CFA; compared to Dexamethasone.
Data set [7] in a line: Metabolic stability in rat liver microsomes (in vitro t1/2). The data set is classed as in vitro ADME. As to conditions: for half-life at 2 µM: read-out: Rat microsome t1/2, min; for Rat microsome % 60 min: rat liver microsomes. In outline: as §9
The target in data set [8] is MCT1 (Homo sapiens (Human), UniProt P53985). Put plainly: Assay 4: MCT1-mediated lactate transport in BT20 breast cancer cells. Format: cell-based. As to conditions: Table 27. The procedure, abridged: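 Transport started with 10 mM L-lactate on BCECF-loaded BT20 cells in Tyrode's Solution, pH 7.4. Dye loading: BCECF-AM ester (30 mM DMSO stock), 5 min at 37° C, then one wash.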
MCT1, sequence (P53985 whole entry): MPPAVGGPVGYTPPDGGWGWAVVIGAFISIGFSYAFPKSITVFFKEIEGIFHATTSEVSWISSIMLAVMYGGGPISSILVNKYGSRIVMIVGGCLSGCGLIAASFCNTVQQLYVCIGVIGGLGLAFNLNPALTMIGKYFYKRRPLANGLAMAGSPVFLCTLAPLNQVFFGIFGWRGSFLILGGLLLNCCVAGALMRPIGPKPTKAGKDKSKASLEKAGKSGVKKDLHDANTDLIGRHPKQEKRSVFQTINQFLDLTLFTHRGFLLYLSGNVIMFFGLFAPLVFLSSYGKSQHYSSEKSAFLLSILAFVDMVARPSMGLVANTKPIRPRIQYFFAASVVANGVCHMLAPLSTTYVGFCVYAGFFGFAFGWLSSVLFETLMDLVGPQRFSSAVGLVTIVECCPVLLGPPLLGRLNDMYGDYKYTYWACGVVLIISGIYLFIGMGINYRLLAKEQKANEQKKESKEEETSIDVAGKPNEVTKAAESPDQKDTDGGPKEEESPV
MCT1, sequence (P35613 140-385 partner): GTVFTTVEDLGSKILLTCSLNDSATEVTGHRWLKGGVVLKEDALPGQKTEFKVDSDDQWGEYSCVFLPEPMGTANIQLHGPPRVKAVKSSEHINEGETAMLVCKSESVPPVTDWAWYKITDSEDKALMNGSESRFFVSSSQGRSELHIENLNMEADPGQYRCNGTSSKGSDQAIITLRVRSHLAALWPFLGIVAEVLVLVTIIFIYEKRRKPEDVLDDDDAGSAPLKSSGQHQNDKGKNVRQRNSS

The target in data set [9] is MCT4 (Homo sapiens (Human), UniProt O15427). Put plainly: Assay 3: MCT4-mediated lactate transport in MDA-MB-231 breast cancer cells. The data set is classed as cell-based. To be noted: MDA-MB-231 cells; lactate transport. The procedure, abridged:
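Read-out is BCECF fluorescence tracking the intracellular pH shift from MCT4-mediated lactate/H+ co-transport. Before measurement, MDA-MB-231 cells take up BCECF-AM for 5 min at 37° C, then are washed into Tyrode's Solution, pH 7.4.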

Setting [10] is: human liver microsomes 0.5 mg/mL, 2 μM compound.
Where [11] appears, read: rat liver microsomes 0.5 mg/mL, 2 μM compound.

MCT4, sequence (O15427 whole entry, looked up): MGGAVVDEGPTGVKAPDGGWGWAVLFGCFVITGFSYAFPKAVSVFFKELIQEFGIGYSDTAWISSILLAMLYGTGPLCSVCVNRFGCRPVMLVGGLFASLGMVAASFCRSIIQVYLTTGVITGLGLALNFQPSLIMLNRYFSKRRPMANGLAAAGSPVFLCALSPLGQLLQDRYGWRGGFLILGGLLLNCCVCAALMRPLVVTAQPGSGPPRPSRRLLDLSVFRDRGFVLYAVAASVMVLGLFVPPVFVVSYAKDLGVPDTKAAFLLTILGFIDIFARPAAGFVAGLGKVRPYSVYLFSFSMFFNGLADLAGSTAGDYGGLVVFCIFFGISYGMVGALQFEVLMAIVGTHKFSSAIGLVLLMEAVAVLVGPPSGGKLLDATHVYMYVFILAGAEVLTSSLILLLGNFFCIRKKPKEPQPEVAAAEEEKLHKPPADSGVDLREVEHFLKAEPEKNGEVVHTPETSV
MCT4, sequence (P35613 whole entry partner, looked up): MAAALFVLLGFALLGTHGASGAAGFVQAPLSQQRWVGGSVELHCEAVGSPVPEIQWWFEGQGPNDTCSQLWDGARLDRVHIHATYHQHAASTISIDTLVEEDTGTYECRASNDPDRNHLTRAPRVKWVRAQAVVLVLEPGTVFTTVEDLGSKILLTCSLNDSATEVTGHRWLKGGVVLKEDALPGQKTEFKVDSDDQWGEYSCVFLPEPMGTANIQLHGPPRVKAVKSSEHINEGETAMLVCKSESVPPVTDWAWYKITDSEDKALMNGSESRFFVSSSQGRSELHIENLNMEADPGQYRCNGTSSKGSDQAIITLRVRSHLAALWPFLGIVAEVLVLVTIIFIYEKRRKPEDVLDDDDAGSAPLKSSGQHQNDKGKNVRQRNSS

`COc1cccc(-c2cc(COC(C)(C)C(=O)O)nn2Cc2ccccc2Cl)c1` [Example 14, 2-([1-[(2-Chlorophenyl)methyl]-5-(3-methoxyphenyl)1H-pyrazol-3-yl]methoxy)-2-methylpropanoic acid]: in [1], the “Difference in Weight Bearing, Minimal Efficacious Dose” value (shortened to “Difference in Weight Bearing”) is on record as 30 mg/kg. In data set [2], the “Rat F” value was determined as 64%, the half-life is 3.8 h and the Vd stood at 1.3 L/kg. For the same molecule, in data set [3], the “Mouse F” value was 100%, the half-life is 5.4 h and the Vd was found to be 0.79 L/kg. Besides, in data set [4], the half-life at 2 µM came to 21.7 h and the “Mouse microsome % 60 min” value turned out to be 95%. The half-life at 2 µM in data set [5] (setting [10]) was 4.08 h. For the same molecule, the “Human microsome % 60 min” value in data set [5] is 82%. The “Mechanical Allodynia (Von Frey), Minimal Efficacious Dose” value (shortened to “Mechanical Allodynia (Von Frey)”) in [6] stood at 30 mg/kg.
Regarding `CC(C)(OCc1cc(-c2cccc(OC3CC3)c2)n(-c2ccccc2Cl)n1)C(=O)O` [Example 110, 2-([1-(2-Chlorophenyl)-5-(3-cyclo-propoxyphenyl)-1H-pyrazol-3-yl)methoxy)-2-methylpropanoic acid], in data set [7] (setting [11]), the half-life at 2 µM was determined as 9.15 h. In [7], the “Rat microsome % 60 min” value is 94%. In [8], this molecule registered an IC50 of 30000 nM. This molecule also gave an IC50 in data set [9] of 20 nM. In data set [1], the “Difference in Weight Bearing” value worked out at 10 mg/kg. Moreover, in data set [2], the “Rat F” value worked out at 84%, the half-life is 4.7 h and the Vd came to 0.34 L/kg. Also, in [3], the “Mouse F” value stood at 100%, the half-life is 26.7 h and the Vd turned out to be 0.81 L/kg. Also, in data set [4], the half-life at 2 µM amounted to 3.72 h and the “Mouse microsome % 60 min” value is 86%. Also, the half-life at 2 µM in data set [5] (setting [10]) stood at 39.6 h. Moreover, the “Human microsome % 60 min” value in [5] is 99%. For the same molecule, in data set [6], the “Mechanical Allodynia (Von Frey)” value is 10 mg/kg.
Consider `CCn1ncc2ccc(-c3cc(COC(C)(C)C(=O)O)nn3Cc3ccccc3Cl)cc21` [Example 150, 2-([1-[(2-Chlorophenyl)methyl]-5-(1-ethyl-1H-indazol-6-yl)-1H-pyrazol-3-yl]-methoxy)-2-methylpropanoic Acid], for which the half-life at 2 µM in data set [7] (setting [11]) came out at 28.6 h. The “Rat microsome % 60 min” value in [7] was found to be 98%. This molecule also had an IC50 in data set [8] of 25000 nM. The midpoint of inhibition in data set [9], the IC50, lay at 2.8 nM. The “Difference in Weight Bearing” value in [1] worked out at 10 mg/kg. In data set [2], the “Rat F” value is recorded as 43%, the half-life is 3.6 h and the Vd was 1.2 L/kg. Besides, in data set [3], the “Mouse F” value is on record as 89%, the half-life is 4.9 h and the Vd came out at 9.9 L/kg. Also, in [4], the “Mouse microsome t1/2, min” value is “∞” and the “Mouse microsome % 60 min” value is given as 103%. Moreover, the half-life at 2 µM in data set [5] (setting [10]) worked out at 5.68 h. In addition, the “Human microsome % 60 min” value in [5] is recorded as 90%. In addition, the “Mechanical Allodynia (Von Frey)” value in data set [6] is given as 10 mg/kg.
`CC(C)COc1cccc(-c2cc(COC(C)(C)C(=O)O)nn2-c2cccc3cnn(C)c23)c1` [Example 170, 2-methyl-2-([1-(1-methyl-1H-indazol-7-yl)-5-[3-(2-methylpropoxy)phenyl]-1H-pyrazol-3-yl]methoxy]propanoic acid]: in data set [7] (setting [11]), the “Rat microsome t1/2, min” value is “∞”. The “Rat microsome % 60 min” value in [7] is given as 95%. The same molecule displayed an IC50 in data set [8] of 32000 nM. The half-inhibitory concentration (IC50) in data set [9] worked out at 2 nM. In [1], the “Difference in Weight Bearing” value was 3 mg/kg. Moreover, in data set [2], the “Rat F” value came to 18%, the half-life is 2.4 h and the Vd was 1.1 L/kg. For the same molecule, in data set [3], the “Mouse F” value was 100%, the half-life was 2.6 h and the Vd worked out at 2 L/kg. Moreover, in data set [4], the “Mouse microsome t1/2, min” value was “∞” and the “Mouse microsome % 60 min” value was determined as 99%. Also, the half-life at 2 µM in data set [5] (setting [10]) is 7.85 h. Further, the “Human microsome % 60 min” value in [5] is listed as 87%. For the same molecule, in [6], the “Mechanical Allodynia (Von Frey)” value is listed as 3 mg/kg.
In the case of `CCn1ncc2ccc(-c3cc(CO[C@](C)(CC)C(=O)O)nn3Cc3ccccc3Cl)cc21` [Example 220, (2R)-2-([1-[(2-chlorophenyl)methyl]-5-(1-ethyl-1H-indazol-6-yl)-1H-pyrazol-3-yl]methoxy)-2-methylbutanoic acid], in data set [7] (setting [11]), the half-life at 2 µM came out at 4.87 h. Further, the “Rat microsome % 60 min” value in data set [7] was found to be 86%. The molecule also returned an IC50 in data set [8] of 33000 nM. Further, the IC50 in data set [9] came to 0.54 nM. Also, the “Difference in Weight Bearing” value in data set [1] is recorded as 3 mg/kg. Further, in [2], the “Rat F” value came out at 29%, the half-life was 2.8 h and the Vd was 0.68 L/kg. Moreover, in data set [3], the “Mouse F” value is given as 100%, the half-life was 6.9 h and the Vd is 1.7 L/kg. In [4], the half-life at 2 µM came to 17.3 h and the “Mouse microsome % 60 min” value turned out to be 102%. Also, the “Human microsome t1/2, min” value in data set [5] (setting [10]) is listed as “∞”. Moreover, in data set [5], the “Human microsome % 60 min” value amounted to 105%. The “Mechanical Allodynia (Von Frey)” value in data set [6] is reported as 3 mg/kg.
Regarding `CCn1ncc2ccc(-c3cc(COC(C)(C)C(=O)O)nn3-c3ccccc3N3CCCC3)cc21` [Example 229], in data set [7] (setting [11]), the half-life at 2 µM was 1.82 h. In addition, the “Rat microsome % 60 min” value in data set [7] is 69%. The molecule also gave an IC50 in data set [8] of 42000 nM. Moreover, inhibition in [9] was half-maximal at 1.9 nM (IC50). Also, the “Difference in Weight Bearing” value in [1] came out at 3 mg/kg. For the same molecule, in data set [2], the “Rat F” value was found to be 100%, the half-life is 2.7 h and the Vd was found to be 1 L/kg. In data set [3], the “Mouse F” value was determined as 100%, the half-life is 4.2 h and the Vd amounted to 1.9 L/kg. Moreover, in [4], the half-life at 2 µM is 3.27 h and the “Mouse microsome % 60 min” value is 81%. Further, in [5] (setting [10]), the half-life at 2 µM was determined as 1.72 h. Further, the “Human microsome % 60 min” value in data set [5] is 64%. Moreover, the “Mechanical Allodynia (Von Frey)” value in [6] came to 3 mg/kg.
Consider `CCCn1ncc2ccc(-c3cc(CO[C@](C)(CC)C(=O)O)nn3-c3ccccc3N3CCC3)cc21` [Example 267, (2R)-2-([1-(2-(azetidin-1-yl)phenyl]-5-(1-propyl-1H-indazol-6-yl)-1H-pyrazol-3-yl]methoxy)-2-methylbutanoic acid], for which the IC50 in data set [8] worked out at 11000 nM. For the same molecule, the IC50 in data set [9] came to 0.57 nM. Further, the “Difference in Weight Bearing” value in [1] is 3 mg/kg. Moreover, in data set [2], the “Rat F” value stood at 54%, the half-life was 2.6 h and the Vd was found to be 7.7 L/kg. Further, in data set [3], the “Mouse F” value worked out at 64%, the half-life is 3.3 h and the Vd worked out at 3.9 L/kg. For the same molecule, in data set [6], the “Mechanical Allodynia (Von Frey)” value turned out to be 3 mg/kg.
For `CCn1ncc2ccc(-c3cc(CO[C@](C)(CC)C(=O)O)nn3-c3ccccc3N3CCCC3)cc21` [Example 268, (2R)-2-([5-(1-ethyl-1H-indazol-6-yl)-1-[2-(pyrrolidin-1-yl)phenyl)-1H-pyrazol-3-yl]methoxy)-2-methylbutanoic acid], inhibition in data set [8] was half-maximal at 36000 nM (IC50). The molecule also had an IC50 in [9] of 0.3 nM. Also, in [1], the “Difference in Weight Bearing” value was 1 mg/kg. In [2], the “Rat F” value amounted to 57%, the half-life was 2.2 h and the Vd is 0.76 L/kg. For the same molecule, in [3], the “Mouse F” value was found to be 77%, the half-life is 2.7 h and the Vd amounted to 0.77 L/kg. Also, the “Mechanical Allodynia (Von Frey)” value in data set [6] was determined as 1 mg/kg.
